HELM strings list units from the 5' end as sugar, base in round brackets, then linkage (d deoxyribose, r ribose, m 2'-O-methyl, p phosphodiester). Strings are as the collection lists them; they lack the last nucleoside at the 3' end of the tested compound. [moe] = 2'-O-(2-methoxyethyl) (MOE); [sp] = phosphorothioate linkage; [m5C] = 5-methylcytosine
molecular target: ATXN2; test: mouse, dose not given; details: ASO

Substance	3 h FOB score
RNA1{[moe](G)[sp].[moe]([m5C])p.[moe](T)p.[moe](T)p.[moe](A)p.[moe](G)p.d(A)[sp].d(G)[sp].d(T)[sp].d(T)[sp].d(T)[sp].d(T)[sp].d(T)[sp].d(G)[sp].d([m5C])[sp].d([m5C])[sp].[moe](T)p.[moe](T)[sp].[moe]([m5C])}$$$$ (last 3' nucleoside missing)	5 score 0-7
RNA1{[moe](G)[sp].[moe]([m5C])p.[moe](T)p.[moe](T)p.[moe](A)p.d(G)[sp].d(A)[sp].d(G)[sp].d(T)[sp].d(T)[sp].d(T)[sp].d(T)[sp].d(T)[sp].d(G)[sp].d([m5C])[sp].[moe]([m5C])p.[moe](T)p.[moe](T)[sp].[moe]([m5C])}$$$$ (last 3' nucleoside missing)	4 score 0-7
RNA1{[moe](G)[sp].[moe]([m5C])p.[moe](T)p.[moe](T)p.[moe](A)p.d(T)[sp].d(T)[sp].d(A)[sp].d(T)[sp].d(T)[sp].d([m5C])[sp].d(T)[sp].d([m5C])[sp].d(A)[sp].d([m5C])[sp].[moe](A)p.[moe](T)p.[moe](A)[sp].[moe](T)}$$$$ (last 3' nucleoside missing)	0 score 0-7
RNA1{[moe](G)[sp].[moe]([m5C])p.[moe](T)p.[moe](T)p.d(A)[sp].d(G)[sp].d(A)[sp].d(G)[sp].d(T)[sp].d(T)[sp].d(T)[sp].d(T)[sp].d(T)[sp].d(G)[sp].[moe]([m5C])p.[moe]([m5C])p.[moe](T)p.[moe](T)[sp].[moe]([m5C])}$$$$ (last 3' nucleoside missing)	4 score 0-7
RNA1{[moe](T)[sp].[moe](A)p.[moe](A)p.[moe](G)p.[moe](A)p.d([m5C])[sp].d(T)[sp].d(T)[sp].d(T)[sp].d(T)[sp].d(T)[sp].d(A)[sp].d(T)[sp].d(G)[sp].d(T)[sp].[moe](T)p.[moe](G)p.[moe]([m5C])[sp].[moe](T)}$$$$ (last 3' nucleoside missing)	1 score 0-7
RNA1{[moe](T)[sp].[moe](A)p.[moe](A)p.[moe](G)p.[moe]([m5C])p.d(T)[sp].d(G)[sp].d(T)[sp].d(G)[sp].d([m5C])[sp].d(T)[sp].d(A)[sp].d(T)[sp].d(G)[sp].d(G)[sp].[moe](T)p.[moe](G)p.[moe](G)[sp].[moe](T)}$$$$ (last 3' nucleoside missing)	6.25 score 0-7
RNA1{[moe](T)[sp].[moe](A)p.[moe](A)p.[moe](T)p.[moe](A)p.d(T)[sp].d(T)[sp].d([m5C])[sp].d([m5C])[sp].d(A)[sp].d(T)[sp].d(A)[sp].d([m5C])[sp].d(A)[sp].d(G)[sp].[moe](A)p.[moe](T)p.[moe]([m5C])[sp].[moe](G)}$$$$ (last 3' nucleoside missing)	0 score 0-7
RNA1{[moe](T)[sp].[moe](A)p.[moe](A)p.[moe]([m5C])p.[moe](T)[sp].d(G)[sp].d(G)[sp].d(T)[sp].d(T)[sp].d(T)[sp].d(G)[sp].d([m5C])[sp].d([m5C])[sp].[moe]([m5C])p.[moe](T)p.[moe](T)[sp].[moe](G)}$$$$ (last 3' nucleoside missing)	6 score 0-7
RNA1{[moe](T)[sp].[moe](A)p.[moe](G)p.[moe](A)p.[moe](G)p.d(T)[sp].d(T)[sp].d(T)[sp].d(T)[sp].d(T)[sp].d(G)[sp].d([m5C])[sp].d([m5C])[sp].d(T)[sp].d(T)[sp].[moe]([m5C])p.[moe]([m5C])p.[moe](A)[sp].[moe](T)}$$$$ (last 3' nucleoside missing)	2.5 score 0-7
RNA1{[moe](T)[sp].[moe](A)p.[moe](G)p.[moe](T)p.[moe](G)p.d(T)[sp].d(T)[sp].d(T)[sp].d(G)[sp].d(G)[sp].d(G)[sp].d(A)[sp].d(T)[sp].d(G)[sp].d([m5C])[sp].[moe](T)p.[moe](T)p.[moe]([m5C])[sp].[moe](A)}$$$$ (last 3' nucleoside missing)	6.25 score 0-7
RNA1{[moe](T)[sp].[moe](A)p.[moe](G)p.[moe]([m5C])p.[moe](A)p.d(T)[sp].d([m5C])[sp].d(A)[sp].d(T)[sp].d(T)[sp].d(G)[sp].d(G)[sp].d([m5C])[sp].d(G)[sp].d([m5C])[sp].[moe](A)p.[moe](T)p.[moe](G)[sp].[moe](G)}$$$$ (last 3' nucleoside missing)	6.25 score 0-7
RNA1{[moe](T)[sp].[moe](A)p.[moe](G)p.[moe]([m5C])p.[moe](A)p.d([m5C])[sp].d(T)[sp].d(T)[sp].d(G)[sp].d(G)[sp].d(T)[sp].d(T)[sp].d([m5C])[sp].d(A)[sp].d(A)[sp].[moe](T)p.[moe](T)p.[moe](T)[sp].[moe](T)}$$$$ (last 3' nucleoside missing)	6 score 0-7
RNA1{[moe](T)[sp].[moe](A)p.[moe](G)p.[moe]([m5C])p.[moe](T)p.d([m5C])[sp].d(A)[sp].d(T)[sp].d([m5C])[sp].d(A)[sp].d(A)[sp].d(G)[sp].d(G)[sp].d(T)[sp].d(A)[sp].[moe]([m5C])p.[moe]([m5C])p.[moe](A)[sp].[moe](G)}$$$$ (last 3' nucleoside missing)	3 score 0-7
RNA1{[moe](T)[sp].[moe](A)p.[moe](T)p.[moe](G)p.[moe](A)p.d(G)[sp].d(G)[sp].d(G)[sp].d(A)[sp].d([m5C])[sp].d(T)[sp].d(A)[sp].d(G)[sp].d(A)[sp].d(G)[sp].[moe]([m5C])p.[moe](A)p.[moe](T)[sp].[moe]([m5C])}$$$$ (last 3' nucleoside missing)	6.25 score 0-7
RNA1{[moe](T)[sp].[moe](A)p.[moe](T)p.[moe](G)p.[moe](T)[sp].d(T)[sp].d(T)[sp].d(G)[sp].d(T)[sp].d([m5C])[sp].d(T)[sp].d(G)[sp].d(T)[sp].[moe]([m5C])p.[moe](T)p.[moe](T)[sp].[moe](A)}$$$$ (last 3' nucleoside missing)	6 score 0-7
RNA1{[moe](T)[sp].[moe](A)p.[moe](T)p.[moe]([m5C])p.[moe](A)[sp].d(T)[sp].d([m5C])[sp].d(A)[sp].d(T)[sp].d(T)[sp].d(T)[sp].d(T)[sp].d([m5C])[sp].[moe]([m5C])p.[moe](A)p.[moe](G)[sp].[moe](G)}$$$$ (last 3' nucleoside missing)	1.5 score 0-7
RNA1{[moe](T)[sp].[moe](A)p.[moe](T)p.[moe]([m5C])p.[moe](A)p.d(T)[sp].d([m5C])[sp].d(A)[sp].d(T)[sp].d(T)[sp].d(T)[sp].d(T)[sp].d([m5C])[sp].d([m5C])[sp].d(A)[sp].[moe](G)p.[moe](G)p.[moe](G)[sp].[moe]([m5C])}$$$$ (last 3' nucleoside missing)	4.75 score 0-7
RNA1{[moe](T)[sp].[moe](A)p.[moe]([m5C])p.[moe](A)p.[moe](G)p.d(G)[sp].d(T)[sp].d(G)[sp].d(A)[sp].d(G)[sp].d(A)[sp].d(T)[sp].d(A)[sp].d(T)[sp].d(A)[sp].[moe](T)p.[moe](A)p.[moe](G)[sp].[moe](G)}$$$$ (last 3' nucleoside missing)	4 score 0-7
RNA1{[moe](T)[sp].[moe](A)p.[moe]([m5C])p.[moe](A)p.[moe]([m5C])p.d(A)[sp].d(G)[sp].d(T)[sp].d(T)[sp].d(T)[sp].d([m5C])[sp].d(A)[sp].d([m5C])[sp].d(T)[sp].d(A)[sp].[moe](G)p.[moe](G)p.[moe](T)[sp].[moe](T)}$$$$ (last 3' nucleoside missing)	1 score 0-7
RNA1{[moe](T)[sp].[moe](A)p.[moe]([m5C])p.[moe](G)p.[moe]([m5C])p.d(G)[sp].d(G)[sp].d(T)[sp].d(G)[sp].d(A)[sp].d(A)[sp].d(T)[sp].d(T)[sp].d([m5C])[sp].d(T)[sp].[moe](G)p.[moe](T)p.[moe]([m5C])[sp].[moe](T)}$$$$ (last 3' nucleoside missing)	0 score 0-7
RNA1{[moe](T)[sp].[moe](A)p.[moe]([m5C])p.[moe](T)p.[moe](G)[sp].d(T)[sp].d(T)[sp].d(T)[sp].d([m5C])[sp].d(G)[sp].d(A)[sp].d([m5C])[sp].d([m5C])[sp].[moe](T)p.[moe]([m5C])p.[moe](T)[sp].[moe](G)}$$$$ (last 3' nucleoside missing)	4.75 score 0-7
RNA1{[moe](T)[sp].[moe](A)p.[moe]([m5C])p.[moe](T)p.[moe](G)p.d(T)[sp].d(T)[sp].d(T)[sp].d([m5C])[sp].d(G)[sp].d(A)[sp].d([m5C])[sp].d([m5C])[sp].d(T)[sp].d([m5C])[sp].[moe](T)p.[moe](G)p.[moe](A)[sp].[moe](A)}$$$$ (last 3' nucleoside missing)	3 score 0-7
RNA1{[moe](T)[sp].[moe](A)p.[moe]([m5C])p.[moe](T)p.[moe](T)[sp].d(T)[sp].d(T)[sp].d([m5C])[sp].d(T)[sp].d([m5C])[sp].d(A)[sp].d(T)[sp].d(G)[sp].[moe](T)p.[moe](G)p.[moe]([m5C])[sp].[moe](G)}$$$$ (last 3' nucleoside missing)	4.75 score 0-7
RNA1{[moe](T)[sp].[moe](A)p.[moe]([m5C])p.[moe](T)p.[moe](T)[sp].d([m5C])[sp].d(A)[sp].d([m5C])[sp].d(A)[sp].d(T)[sp].d(T)[sp].d(T)[sp].d(G)[sp].[moe](G)p.[moe](A)p.[moe](G)[sp].[moe]([m5C])}$$$$ (last 3' nucleoside missing)	3.25 score 0-7
RNA1{[moe](T)[sp].[moe](A)p.[moe]([m5C])p.[moe](T)p.[moe](T)p.[moe](T)p.d(T)[sp].d([m5C])[sp].d(T)[sp].d([m5C])[sp].d(A)[sp].d(T)[sp].d(G)[sp].d(T)[sp].d(G)[sp].d([m5C])[sp].[moe](G)p.[moe](G)[sp].[moe]([m5C])}$$$$ (last 3' nucleoside missing)	5.5 score 0-7
RNA1{[moe](T)[sp].[moe](A)p.[moe]([m5C])p.[moe](T)p.[moe](T)p.d(T)[sp].d(T)[sp].d([m5C])[sp].d(T)[sp].d([m5C])[sp].d(A)[sp].d(T)[sp].d(G)[sp].d(T)[sp].d(G)[sp].[moe]([m5C])p.[moe](G)p.[moe](G)[sp].[moe]([m5C])}$$$$ (last 3' nucleoside missing)	3.75 score 0-7
RNA1{[moe](T)[sp].[moe](A)p.[moe]([m5C])p.[moe](T)p.[moe](T)p.d([m5C])[sp].d(A)[sp].d([m5C])[sp].d(A)[sp].d(T)[sp].d(T)[sp].d(T)[sp].d(G)[sp].d(G)[sp].d(A)[sp].[moe](G)p.[moe]([m5C])p.[moe]([m5C])[sp].[moe]([m5C])}$$$$ (last 3' nucleoside missing)	5.25 score 0-7

From the OligoGym collection
